{"source": "patent US20180117042A1", "about": "“METHODS FOR TREATING RESPIRATORY SYNCYTIAL VIRUS INFECTION” (ALIOS BIOPHARMA, INC., priority 2016, published 2018)", "key": {"[1]": {"assay": "SAD/MAD study in pediatric patients hospitalized with RSV infection: plasma PK with PK modeling", "assay_type": "in vivo, human", "protocol": "(§1) One hundred fifty eight otherwise healthy pediatric patients hospitalized with RSV infection were recruited in a randomized, double-blind, placebo-controlled, SAD (single ascending dose) and MAD (multiple ascending dose) study. The patients were randomized into nine SAD, MAD regimens. Subjects not given the placebo were administered lumicitabine or compound (A), a prodrug of the nucleoside analog AL-8112 (otherwise referenced herein as compound (C), the triphosphate of which is a potent inhibitor of the RSV polymerase. The cohort size and dose for the first SAD cohort was prespecified. The makeup of all other cohorts was determined by an Independent Data Monitoring Committee (IDMC) that regularly reviewed data. FIG. 2 provides the single and multiple doses used in the study as well as approximate numbers of subjects dosed. Safety and PK data were collected for 7 (SAD) and 28 (MAD) days post randomization. PK was analyzed using non-linear mixed effect modeling.\nPart 1 (single ascending dose): Patients received a single dose of 1 of 4 ascending doses of compound (A), (1.37 mg/kg, 4.1 mg/kg, 12 mg/kg and 25 mg/kg) or placebo. Patients received compound (A) for a 7-day consecutive period.\nPart 2 (multiple ascending dosage): Patients received a loading dosage followed by nine maintenance dosages, or placebo. Patients received compound (A) for a 5-day consecutive period. The maintenance dosages were administered twice daily. In the twice daily dosage regimen, the first maintenance dosage was given 8-18 hours after the loading dosage (dosage 1).\nA PK model was developed integrating adult and pediatric data to aid calculation of PK parameters and project efficacious doses. For pediatric dose and exposure projections three age cohorts were used: 1-<2 months, 2-<6 month and 6-<12 months. Apparent clearance increased with dose, creatinine clearance and body weight (using allometric principles). Maturation functions were applied for age dependent changes in Carboxylesterase 1 abundance on bioavailability and kidney function on renal elimination. […]"}, "RSV": {"tested_on": "RSV", "conditions": "infants and young children with severe RSV LRTI; cited from earlier work"}, "[2]": {"assay": "SAD/MAD study in pediatric patients hospitalized with RSV infection: safety", "assay_type": "in vivo, human", "conditions": "infants hospitalized with RSV, interim blinded results", "protocol": "as §1, with “modeling. Part 1 (single ascending dose): Patients received a single dose of 1 of 4 ascending doses of compound (A), (1.37 mg/kg, 4.1 mg/kg, 12 mg/kg and 25 mg/kg) or placebo. Patients received compound (A) for a 7-day consecutive period. Part 2 (multiple ascending dosage): Patients received a loading dosage followed by nine maintenance dosages, or placebo. Patients received compound (A) for a 5-day consecutive period. […]” for “modeling.”"}, "[3]": {"tested_on": "RSV-A Memphis 37b challenge virus", "assay": "human RSV challenge model in healthy adults, viral load in nasal washes", "assay_type": "in vivo", "protocol": "Healthy adults received one of the following dosing regimens or placebo over 5 days using the human RSV challenge model.\nPatients were given an intranasal inoculation of RSV-A Memphis 37b challenge virus. Administration of compound (A), or a pharmaceutically acceptable salt thereof, began approximately 12 hours after confirmation of RSV infection as determined by the presence of RSV RNA in nasopharyngeal washes. The test compound was administered as an oral-liquid suspension, wherein the drug vehicle was methyl cellulose and sterile water. The placebo was the drug vehicle without the test compound. Second dosages were started 12 hours after administration of the first dosage, and the remaining second dosages were provided in approximate 12 hour intervals. Nasal washes were collected twice daily approximately 36 to 48 hours after RSV inoculation until Day 12. Viral load was detected and quantified from the aliquots of the nasal wash samples using tissue infectivity plaque assays and PCR. (See DeVincenzo, J. P., et al., Am. J. Respir. Crit. Care. Med. (2010) 182(10):1305-1314) Patients returned for two follow-up visits on Day 16 (±2 days) and Day 28 (±2 days) post-challenge inoculation."}, "[4]": {"assay": "half-life of the triphosphate compound (B)", "conditions": "triphosphate formed inside the cell"}}}
{"smiles": "Nc1ccn([C@@H]2O[C@@](CO)(CCl)[C@@H](O)[C@H]2F)c(=O)n1", "note": "[compound (C)]", "values": [{"measurement": "AUC(0-t)", "setting": "[1]; human, plasma, doses of 40/20 mg/kg and 60/40 mg/kg compound (A), actual concentrations with PK modeling (FIG. 3), read-out: plasma AUC0-24", "result": "8 to 20", "unit": "µg·h/mL"}, {"measurement": "accumulation", "setting": "[1]; multiple dosing", "result": "no accumulation"}, {"measurement": "plasma exposures with increasing ALS-8176 doses (dose proportionality)", "setting": "[1]; oral", "result": "less than dose proportional"}]}
{"smiles": "NC(=O)c1ncn([C@@H]2O[C@H](CO)[C@@H](O)[C@H]2O)n1", "note": "[aerosolized ribavirin, ribavirin]", "values": [{"measurement": "clinical benefit of treatment", "setting": "RSV", "result": "failed to impart any clinically significant benefits"}]}
{"smiles": "CC(C)C(=O)OC[C@@]1(CCl)O[C@@H](n2ccc(N)nc2=O)[C@H](F)[C@@H]1OC(=O)C(C)C", "note": "[compound (A), Lumicitabine]", "values": [{"measurement": "tolerability", "setting": "[2]; multiple doses up to 60/40 mg/kg", "result": "well tolerated"}, {"measurement": "tolerability", "setting": "[2]; single doses up to 25 mg/kg", "result": "well tolerated"}, {"measurement": "RSV viral load compared to the placebo", "setting": "[3]; all regimens (750/150 mg, 750/500 mg, 375 mg), oral, 5 days, FIG. 1", "result": "marked reduction"}, {"measurement": "RSV RNA", "setting": "[3]; at Day 12, all treated patients", "result": "undetectable"}, {"measurement": "RSV RNA", "setting": "[3]; at Day 16 follow-up", "result": "undetectable"}, {"measurement": "RSV RNA", "setting": "[3]; at Day 28 follow-up", "result": "undetectable"}, {"measurement": "laboratory abnormalities", "setting": "[3]; healthy adults, 5 days dosing", "result": "no clinically significant laboratory abnormalities"}, {"measurement": "treatment discontinuation during the study", "setting": "[3]; healthy adults, 5 days dosing", "result": "no patient discontinued treatment"}, {"measurement": "reduction of plaque forming units equivalents (PFUe/mL)", "setting": "[3]; patients who received 750 mg on Day 1, within the first 24 hours", "result": "multi-log reduction"}]}
{"smiles": "Nc1ccn([C@@H]2O[C@](CCl)(COP(=O)(O)OP(=O)(O)OP(=O)(O)O)[C@@H](O)[C@H]2F)c(=O)n1", "note": "[Compound (B)]", "values": [{"measurement": "half-life", "setting": "[4]", "result": "~17.6", "unit": "h"}]}
